Patent US7074789B2, “Kinase inhibitors” (Amgen Inc., priority 1999, dated 2006)

Tests used:
Format in all cases: biochemical
[1] = biological target: T1, Lck (Homo sapiens, UniProt P06239); assay: Kinase inhibition assay (33P transfer), Lck; conditions: Table 3; read-out: Lck-1
T1 construct: Kinases are expressed as either kinase domains or full length constructs; made in house
In short: (§1)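 Measured by scintillation: radiolabelled phosphate added by tagged recombinant kinases to poly(Glu,Tyr) 4:1 or poly(Arg,Ser) 3:1 attached to microtiter wells, counted once free label was washed away with 0.5% phosphoric acid.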

[2] = biological target: T2, Lyn (Homo sapiens, UniProt P07948); assay: Kinase inhibition assay (33P transfer), Lyn; conditions: Table 6, Lyn-1 kinase inhibition class
T2 construct: Kinases are expressed as either kinase domains or full length constructs; made in house
In short: (§2)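 IC50: inhibitor concentration lowering 33P incorporation into immobilised substrate by 50%. Label transferred from ATP to poly(Glu,Tyr) 4:1 or poly(Arg,Ser) 3:1 is measured after a 0.5% phosphoric acid wash by liquid scintillation.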

[3] = biological target: T3, Src (Homo sapiens, UniProt P12931); assay: Kinase inhibition assay (33P transfer), Src; conditions: Table 6, Src-1 kinase inhibition class
T3 construct: Kinases are expressed as either kinase domains or full length constructs; made in house
In short: as §2

[4] = biological target: T4, Itk (Homo sapiens, UniProt Q08881); assay: Kinase inhibition assay (33P transfer), Itk; conditions: Table 3; read-out: Itk-1
T4 construct: Kinases are expressed as either kinase domains or full length constructs; made in house
T4 sequence (Q08881 1-620): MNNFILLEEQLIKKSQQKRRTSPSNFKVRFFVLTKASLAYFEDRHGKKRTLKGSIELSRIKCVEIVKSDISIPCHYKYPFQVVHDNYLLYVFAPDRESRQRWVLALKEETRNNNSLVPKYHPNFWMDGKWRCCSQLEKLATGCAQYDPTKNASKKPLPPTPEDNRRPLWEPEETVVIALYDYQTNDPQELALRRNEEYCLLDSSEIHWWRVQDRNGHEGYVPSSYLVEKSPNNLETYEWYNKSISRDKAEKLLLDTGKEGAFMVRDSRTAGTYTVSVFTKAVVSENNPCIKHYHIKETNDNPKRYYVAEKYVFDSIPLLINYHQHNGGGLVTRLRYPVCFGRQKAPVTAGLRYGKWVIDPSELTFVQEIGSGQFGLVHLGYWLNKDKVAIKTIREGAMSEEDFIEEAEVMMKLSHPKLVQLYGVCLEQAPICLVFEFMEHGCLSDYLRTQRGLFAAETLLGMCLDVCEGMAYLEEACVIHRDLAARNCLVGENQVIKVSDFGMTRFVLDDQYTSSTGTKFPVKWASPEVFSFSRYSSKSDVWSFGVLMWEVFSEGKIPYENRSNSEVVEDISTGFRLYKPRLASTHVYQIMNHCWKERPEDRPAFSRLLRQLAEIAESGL
In short: as §2

[5] = biological target: T5, EGFR (Homo sapiens, UniProt P00533); assay: Kinase inhibition assay (33P transfer), EGFR; conditions: Table 2, kinase inhibition class; read-out: EGFR-1
T5 construct: Kinases are expressed as either kinase domains or full length constructs; made in house
In short: as §2

[6] = biological target: T6, Flt-1 (Homo sapiens, UniProt P17948); assay: Kinase inhibition assay (33P transfer), Flt-1
T6 construct: Kinases are expressed as either kinase domains or full length constructs; made in house
In short: as §2

[7] = biological target: T7, Tek (Homo sapiens, UniProt Q02763); assay: Kinase inhibition assay (33P transfer), Tek; conditions: read-out: Tek-1
T7 construct: Kinases are expressed as either kinase domains or full length constructs; made in house
In short: as §2

[8] = biological target: T8, c-Met (Homo sapiens, UniProt P08581); assay: Kinase inhibition assay (33P transfer), c-Met; conditions: Table 2, kinase inhibition class; read-out: Met-1
T8 construct: Kinases are expressed as either kinase domains or full length constructs; made in house
In short: as §2

[9] = biological target: T9, AKT (Homo sapiens, UniProt Q9Y243); assay: Kinase inhibition assay (33P transfer), AKT; conditions: Table 2, kinase inhibition class; read-out: AKT3-1
T9 construct: Kinases are expressed as either kinase domains or full length constructs; made in house
In short: as §1

[10] = biological target: T10, Hck-1 (Homo sapiens, UniProt P08631); assay: Kinase inhibition assay (33P transfer), Hck; conditions: Table 6, Hck-1 kinase inhibition class
T10 construct: Kinases are expressed as either kinase domains or full length constructs; made in house

[11] = biological target: T11, ErbB4 (Homo sapiens, UniProt Q15303); assay: Kinase inhibition assay (33P transfer), ErbB4; conditions: read-out: ErbB4-1
T11 construct: Kinases are expressed as either kinase domains or full length constructs; made in house

[12] = biological target: T12, Ret-1 (Homo sapiens, UniProt P07949); assay: Kinase inhibition assay (33P transfer), Ret; conditions: Table 6, Ret-1 kinase inhibition class
T12 construct: Kinases are expressed as either kinase domains or full length constructs; made in house

[13] = biological target: T13, FGFR1 (Homo sapiens, UniProt P11362); assay: Kinase inhibition assay (33P transfer), FGFR1; conditions: read-out: FGFR1-1
T13 construct: Kinases are expressed as either kinase domains or full length constructs; made in house

[14] = biological target: T14, ErbB2 (Homo sapiens, UniProt P04626); assay: Kinase inhibition assay (33P transfer), ErbB2; conditions: read-out: ErbB2-2
T14 construct: Kinases are expressed as either kinase domains or full length constructs; made in house
In short: as §2

T2 sequence (P07948 whole entry, species assumed, the tested form may be a part): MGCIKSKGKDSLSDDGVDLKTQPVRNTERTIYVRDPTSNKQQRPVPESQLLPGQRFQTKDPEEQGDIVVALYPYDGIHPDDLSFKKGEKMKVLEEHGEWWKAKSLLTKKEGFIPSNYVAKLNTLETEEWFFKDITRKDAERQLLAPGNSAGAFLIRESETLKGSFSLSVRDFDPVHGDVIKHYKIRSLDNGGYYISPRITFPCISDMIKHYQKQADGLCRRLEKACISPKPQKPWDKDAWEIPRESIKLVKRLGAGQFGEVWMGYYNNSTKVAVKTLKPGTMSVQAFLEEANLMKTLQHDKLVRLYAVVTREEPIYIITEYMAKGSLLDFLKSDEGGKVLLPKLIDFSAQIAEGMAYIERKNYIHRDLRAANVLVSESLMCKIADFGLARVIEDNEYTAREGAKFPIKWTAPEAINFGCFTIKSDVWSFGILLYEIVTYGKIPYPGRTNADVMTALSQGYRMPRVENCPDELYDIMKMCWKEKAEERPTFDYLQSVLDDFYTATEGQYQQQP
T6 sequence (P17948 27-1338, species assumed): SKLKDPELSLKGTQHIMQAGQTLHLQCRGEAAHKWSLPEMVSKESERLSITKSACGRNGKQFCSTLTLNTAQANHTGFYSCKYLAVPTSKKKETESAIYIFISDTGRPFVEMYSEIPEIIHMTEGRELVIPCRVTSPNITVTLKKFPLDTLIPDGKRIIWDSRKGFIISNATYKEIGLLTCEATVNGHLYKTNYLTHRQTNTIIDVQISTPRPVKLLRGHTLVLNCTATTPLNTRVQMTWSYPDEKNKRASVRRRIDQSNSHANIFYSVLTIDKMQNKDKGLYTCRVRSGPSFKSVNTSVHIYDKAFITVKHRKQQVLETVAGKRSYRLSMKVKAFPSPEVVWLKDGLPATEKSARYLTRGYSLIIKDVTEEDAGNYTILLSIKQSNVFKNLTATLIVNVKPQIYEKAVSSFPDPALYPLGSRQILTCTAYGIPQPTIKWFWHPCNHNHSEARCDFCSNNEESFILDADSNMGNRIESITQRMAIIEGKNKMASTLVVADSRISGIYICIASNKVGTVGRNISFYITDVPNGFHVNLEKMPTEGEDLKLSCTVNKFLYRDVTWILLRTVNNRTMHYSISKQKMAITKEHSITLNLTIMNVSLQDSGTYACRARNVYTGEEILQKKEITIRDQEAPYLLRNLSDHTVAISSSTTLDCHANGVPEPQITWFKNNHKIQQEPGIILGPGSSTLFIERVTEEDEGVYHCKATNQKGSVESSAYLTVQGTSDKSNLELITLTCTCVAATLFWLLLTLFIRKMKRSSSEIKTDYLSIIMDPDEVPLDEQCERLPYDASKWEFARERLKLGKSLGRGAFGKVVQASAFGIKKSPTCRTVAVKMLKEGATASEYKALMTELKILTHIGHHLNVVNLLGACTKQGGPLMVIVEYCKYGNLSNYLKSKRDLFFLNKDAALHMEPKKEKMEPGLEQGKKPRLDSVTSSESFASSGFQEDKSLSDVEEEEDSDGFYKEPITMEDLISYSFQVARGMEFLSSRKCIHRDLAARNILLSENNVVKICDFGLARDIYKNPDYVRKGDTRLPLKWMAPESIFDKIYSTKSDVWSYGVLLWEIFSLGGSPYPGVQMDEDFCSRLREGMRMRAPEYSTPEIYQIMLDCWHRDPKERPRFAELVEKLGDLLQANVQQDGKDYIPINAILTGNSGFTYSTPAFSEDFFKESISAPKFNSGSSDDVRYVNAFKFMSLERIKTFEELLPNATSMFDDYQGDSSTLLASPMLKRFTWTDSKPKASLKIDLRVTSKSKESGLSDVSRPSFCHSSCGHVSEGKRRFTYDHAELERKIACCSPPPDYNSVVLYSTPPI
T5 sequence (P00533 25-1210, species assumed): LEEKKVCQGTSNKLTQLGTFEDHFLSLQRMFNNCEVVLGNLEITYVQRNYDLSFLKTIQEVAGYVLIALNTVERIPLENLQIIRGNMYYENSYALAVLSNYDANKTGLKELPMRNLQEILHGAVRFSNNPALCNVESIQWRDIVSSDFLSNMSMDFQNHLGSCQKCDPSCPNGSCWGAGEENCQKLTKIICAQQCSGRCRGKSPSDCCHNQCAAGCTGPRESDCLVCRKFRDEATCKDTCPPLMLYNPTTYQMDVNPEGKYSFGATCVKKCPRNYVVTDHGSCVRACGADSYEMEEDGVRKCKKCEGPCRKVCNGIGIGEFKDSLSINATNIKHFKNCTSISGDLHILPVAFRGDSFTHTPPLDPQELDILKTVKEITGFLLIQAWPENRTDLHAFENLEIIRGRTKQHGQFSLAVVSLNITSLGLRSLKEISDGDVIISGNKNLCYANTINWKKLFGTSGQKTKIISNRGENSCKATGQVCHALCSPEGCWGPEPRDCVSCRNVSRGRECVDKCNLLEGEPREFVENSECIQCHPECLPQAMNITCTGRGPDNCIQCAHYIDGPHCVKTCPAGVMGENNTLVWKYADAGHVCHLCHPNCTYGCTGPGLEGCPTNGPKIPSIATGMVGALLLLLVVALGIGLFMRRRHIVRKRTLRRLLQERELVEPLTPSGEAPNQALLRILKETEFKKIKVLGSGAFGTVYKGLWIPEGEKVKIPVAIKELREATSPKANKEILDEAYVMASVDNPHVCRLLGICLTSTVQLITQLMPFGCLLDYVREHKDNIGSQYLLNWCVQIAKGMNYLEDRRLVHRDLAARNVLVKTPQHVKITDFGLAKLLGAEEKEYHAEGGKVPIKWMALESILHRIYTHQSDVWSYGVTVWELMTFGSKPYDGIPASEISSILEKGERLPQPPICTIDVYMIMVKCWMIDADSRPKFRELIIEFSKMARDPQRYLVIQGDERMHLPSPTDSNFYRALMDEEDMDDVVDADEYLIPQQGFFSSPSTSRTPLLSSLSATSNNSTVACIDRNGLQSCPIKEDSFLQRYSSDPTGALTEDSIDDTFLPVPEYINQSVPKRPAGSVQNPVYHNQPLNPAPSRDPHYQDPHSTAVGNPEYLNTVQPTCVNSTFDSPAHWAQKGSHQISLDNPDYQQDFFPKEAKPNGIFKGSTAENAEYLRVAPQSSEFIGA
T3 sequence (P12931 whole entry, species assumed, the tested form may be a part): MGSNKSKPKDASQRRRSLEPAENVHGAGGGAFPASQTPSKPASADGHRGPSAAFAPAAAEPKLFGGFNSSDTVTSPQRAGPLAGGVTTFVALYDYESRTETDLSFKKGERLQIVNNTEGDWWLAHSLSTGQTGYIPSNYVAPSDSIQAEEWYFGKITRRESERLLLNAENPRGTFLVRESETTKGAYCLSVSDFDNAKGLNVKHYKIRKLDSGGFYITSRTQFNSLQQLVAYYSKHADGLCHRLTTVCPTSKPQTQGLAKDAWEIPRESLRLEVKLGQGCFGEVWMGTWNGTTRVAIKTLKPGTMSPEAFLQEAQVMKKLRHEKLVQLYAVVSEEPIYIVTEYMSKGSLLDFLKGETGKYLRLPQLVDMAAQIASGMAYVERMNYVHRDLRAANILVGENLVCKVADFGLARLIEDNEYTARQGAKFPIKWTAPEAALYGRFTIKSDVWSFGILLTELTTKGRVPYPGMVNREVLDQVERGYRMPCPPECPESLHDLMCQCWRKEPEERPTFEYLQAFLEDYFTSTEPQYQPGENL
T9 sequence (Q9Y243 whole entry, the tested form may be a part): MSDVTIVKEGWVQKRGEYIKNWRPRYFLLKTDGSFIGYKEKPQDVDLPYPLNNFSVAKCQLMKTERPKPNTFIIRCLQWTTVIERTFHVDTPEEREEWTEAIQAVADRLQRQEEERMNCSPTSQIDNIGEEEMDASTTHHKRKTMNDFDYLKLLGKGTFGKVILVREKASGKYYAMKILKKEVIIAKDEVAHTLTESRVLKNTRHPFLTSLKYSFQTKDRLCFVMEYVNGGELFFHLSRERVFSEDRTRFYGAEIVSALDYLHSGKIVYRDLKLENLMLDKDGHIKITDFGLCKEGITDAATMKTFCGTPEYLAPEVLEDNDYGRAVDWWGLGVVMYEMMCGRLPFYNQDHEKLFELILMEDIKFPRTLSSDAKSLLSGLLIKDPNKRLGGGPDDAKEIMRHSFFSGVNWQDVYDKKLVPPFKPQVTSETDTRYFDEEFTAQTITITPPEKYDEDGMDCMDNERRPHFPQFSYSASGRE
T13 sequence (P11362 22-822, species assumed): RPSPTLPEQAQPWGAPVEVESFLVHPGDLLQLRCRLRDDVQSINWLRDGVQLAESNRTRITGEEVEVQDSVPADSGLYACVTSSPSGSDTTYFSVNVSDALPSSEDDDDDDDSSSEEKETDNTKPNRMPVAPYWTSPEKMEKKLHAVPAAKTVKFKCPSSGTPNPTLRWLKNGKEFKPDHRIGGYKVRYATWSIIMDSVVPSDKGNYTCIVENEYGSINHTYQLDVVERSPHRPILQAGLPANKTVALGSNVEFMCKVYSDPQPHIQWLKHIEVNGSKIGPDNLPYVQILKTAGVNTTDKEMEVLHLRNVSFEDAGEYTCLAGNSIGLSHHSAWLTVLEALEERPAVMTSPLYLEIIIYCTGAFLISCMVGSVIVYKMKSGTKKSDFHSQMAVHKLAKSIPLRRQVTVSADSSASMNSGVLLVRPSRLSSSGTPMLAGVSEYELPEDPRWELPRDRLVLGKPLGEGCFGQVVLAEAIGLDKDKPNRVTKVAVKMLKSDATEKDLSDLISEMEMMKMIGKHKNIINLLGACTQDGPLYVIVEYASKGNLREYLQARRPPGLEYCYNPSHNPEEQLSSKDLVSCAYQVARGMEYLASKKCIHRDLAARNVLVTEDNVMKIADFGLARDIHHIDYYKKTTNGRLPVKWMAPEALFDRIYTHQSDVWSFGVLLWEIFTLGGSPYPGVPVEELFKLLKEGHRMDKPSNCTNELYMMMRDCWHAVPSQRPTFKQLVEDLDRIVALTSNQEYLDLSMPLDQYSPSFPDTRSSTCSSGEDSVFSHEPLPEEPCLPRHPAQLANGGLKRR

Row | Structure (SMILES) | IC50 [1] | IC50 [2] | IC50 [3] | IC50 [4] | IC50 [5] | IC50 [6] | IC50 [7] | IC50 [8] | IC50 [9] | IC50 [10] | IC50 [11] | IC50 [12] | IC50 [13] | IC50 [14]
1 | COc1cc(Nc2ncnc(Nc3cccc(Br)c3)n2)cc(OC)c1OC [Compound 75] | 0.925 to 5.55 µM | < 0.925 µM | 0.925 to 5.55 µM | > 10.4 µM | < 0.925 µM | > 10.4 µM | > 10.4 µM | 8.1 to 10.4 µM | 8.1 to 10.4 µM | > 10.4 µM | > 10.4 µM | > 10.4 µM | 8.1 to 10.4 µM | 
2 | COc1cc(Nc2ncnc(NC(=O)Nc3ccccc3)n2)cc(OC)c1OC [Compound 852] | > 11.4 µM | > 11.4 µM | > 11.4 µM | > 11.4 µM | > 11.4 µM | > 11.4 µM |  | 6.05 to 8.83 µM | > 11.4 µM | > 11.4 µM | > 11.4 µM | 6.05 to 8.83 µM | > 11.4 µM | 6.05 to 8.83 µM
3 | COc1cc(Nc2ncnc(Nc3ccc(OCc4ccccc4)cc3)n2)cc(OC)c1OC [Compound 926] | 0.871 to 5.22 µM | 0.871 to 5.22 µM | 0.871 to 5.22 µM | > 9.79 µM | 0.871 to 5.22 µM | 0.871 to 5.22 µM | 7.62 to 9.79 µM | 7.62 to 9.79 µM | > 9.79 µM | > 9.79 µM | > 9.79 µM | 7.62 to 9.79 µM | 0.871 to 5.22 µM | 
4 | COC(=O)c1cccc(Nc2ncnc(Nc3cc(-c4ccco4)n[nH]3)n2)c1 [Compound 344] | 1.06 to 6.36 µM | > 11.9 µM | > 11.9 µM | > 11.9 µM | > 11.9 µM | 6.36 to 9.27 µM | > 11.9 µM | 1.06 to 6.36 µM | > 11.9 µM | > 11.9 µM | > 11.9 µM | 1.06 to 6.36 µM | < 1.06 µM | 
5 | COc1cc(Nc2ncnc(Nc3ccc4cn[nH]c4c3)n2)cc(OC)c1OC [Compound 70] | 1.02 to 6.1 µM | 1.02 to 6.1 µM | < 1.02 µM | 8.9 to 11.4 µM | 1.02 to 6.1 µM | < 1.02 µM | > 11.4 µM | > 11.4 µM | > 11.4 µM | > 11.4 µM | 1.02 to 6.1 µM | 1.02 to 6.1 µM | 1.02 to 6.1 µM | 

Further lines, results first:

Row | IC50 [1] | IC50 [2] | IC50 [3] | IC50 [4] | IC50 [5] | IC50 [6] | IC50 [7] | IC50 [8] | IC50 [9] | IC50 [10] | IC50 [11] | IC50 [12] | IC50 [13] | IC50 [14] | Structure (SMILES)
6 | < 1.01 µM | < 1.01 µM | 1.01 to 6.04 µM | > 11.3 µM | < 1.01 µM | 8.81 to 11.3 µM | > 11.3 µM | > 11.3 µM | > 11.3 µM | > 11.3 µM | 1.01 to 6.04 µM | > 11.3 µM | > 11.3 µM |  | COc1cc(Nc2ncnc(Nc3cc(C)c(O)cc3C)n2)cc(OC)c1OC [Compound 94]
7 | < 0.898 µM | < 0.898 µM | < 0.898 µM | > 10.1 µM | < 0.898 µM | < 0.898 µM | > 10.1 µM | 7.86 to 10.1 µM | > 10.1 µM | > 10.1 µM | 0.898 to 5.39 µM | < 0.898 µM | < 0.898 µM |  | COc1cc(Nc2ncnc(Nc3ccc(Oc4ccccc4)cc3)n2)cc(OC)c1OC [Compound 29]
8 | < 1.08 µM | < 1.08 µM | < 1.08 µM | 1.08 to 6.5 µM | 1.08 to 6.5 µM | < 1.08 µM | > 12.2 µM | > 12.2 µM | > 12.2 µM | > 12.2 µM | 1.08 to 6.5 µM | 1.08 to 6.5 µM | < 1.08 µM |  | COc1cc(Nc2ncnc(Nc3ccc(O)cc3)n2)cc(OC)c1OC [Compound 85]
9 | < 1.02 µM | < 1.02 µM | < 1.02 µM | < 1.02 µM | < 1.02 µM | 1.02 to 6.1 µM | > 11.4 µM | 6.1 to 8.9 µM | > 11.4 µM | > 11.4 µM | 1.02 to 6.1 µM | > 11.4 µM | 6.1 to 8.9 µM |  | COc1cc(Nc2ncnc(Nc3ccc4[nH]ncc4c3)n2)cc(OC)c1OC [Compound 79]
10 | < 0.913 µM | < 0.913 µM | < 0.913 µM | > 10.3 µM | < 0.913 µM | < 0.913 µM | > 10.3 µM | 7.99 to 10.3 µM | > 10.3 µM | > 10.3 µM | > 10.3 µM | 0.913 to 5.48 µM | > 10.3 µM |  | COc1cc(Nc2ncnc(Nc3cc(Cl)c(O)c(Cl)c3)n2)cc(OC)c1OC [Compound 68]
